According to patent US20230338360A1, “Method of Inhibiting Constitutively Active Phosphorylated FLT3 Kinase” (Arog Pharmaceuticals, Inc., priority 2012, published 2023):
Read-outs that look alike come from different tables or passages of the source. Each block holds one molecule with its values, some of them ahead of it.

How the values were obtained:
VEGFR-2 = VEGFR-2 (Homo sapiens, UniProt P35968); assay: Inhibition of other RTKs (IC50); assay type: biochemical
FGFR-2 = FGFR-2 (Homo sapiens, UniProt P21802); assay: Inhibition of other RTKs (IC50); assay type: biochemical
TIE-2 = TIE-2 (Homo sapiens, UniProt Q02763); assay: Inhibition of other RTKs (IC50); assay type: biochemical
Src = Src (Homo sapiens, UniProt P12931); assay: Inhibition of other RTKs (IC50); assay type: biochemical
EGFR = EGFR (Homo sapiens, UniProt P00533); assay: Inhibition of other RTKs (IC50); assay type: biochemical
erbB2 = erbB2 (Homo sapiens, UniProt P04626); assay: Inhibition of other RTKs (IC50); assay type: biochemical
[1] = tested on: other kinases (VEGFR-2, FGFR-2, TIE-2, VEGFR, FGFR, EGFR, erbB2, src, Abl, Raf); assay: Selectivity relative to other kinases; assay type: biochemical; conditions: at clinically achievable concentrations, e.g. VEGFR
[2] = tested on: FLT3 ITD expressing Molm 14 cells; conditions: cited from earlier work; for Percent Apoptosis: Molm 14
[3] = tested on: primary AML patient blast samples harboring the FLT3 ITD mutation; conditions: samples from five patients, increasing concentrations, MTT; cited from earlier work
[4] = tested on: luciferase-expressing MV-411 cells; conditions: 15 mg/kg intraperitoneally, male NSG mice, twice daily 2 days then once daily 2 days; p<0.01; cited from earlier work
Ba/F3 D835Y = conditions: text: viability, read-out: IC50 pFLT3; cited from earlier work
Ba/F3 D835N = conditions: text: viability, read-out: IC50 pFLT3; cited from earlier work
[5] = tested on: primary AML patient blasts with FLT3 D835 mutation; conditions: MTT assay, 3 day exposure; cited from earlier work
Ba/F3 D835Y/ITD = conditions: text: viability, read-out: IC50 pFLT3; cited from earlier work
[6] = tested on: primary AML patient blasts with FLT3 ITD and FLT3 D835Y mutation; conditions: blasts incubated 3 days; patient relapsed after AC220; cited from earlier work
FLT3-ITD MV411 cells = conditions: crenolanib 0.1 uM for 5 minutes and 2 hours, […] radiolabeled cytarabine; cited from earlier work
MV-411 FLT3 ITD cells = conditions: combined with cytarabine in vitro; cited from earlier work
[7] = biological target: wild type FLT3 receptor in HL60 (Homo sapiens, UniProt P36888); conditions: cited from earlier work
[8] = biological target: ABL1(T315I) nonphosphorylated (Homo sapiens, UniProt P00519, T315I)
[9] = biological target: ABL1(T315I) phosphorylated (Homo sapiens, UniProt P00519, T315I)
ABL1-nonphosphorylated = ABL1-nonphosphorylated (Homo sapiens, UniProt P00519)
ABL1-phosphorylated = ABL1-phosphorylated (Homo sapiens, UniProt P00519)

Chain of VEGFR-2 (P35968 20-1356, species assumed): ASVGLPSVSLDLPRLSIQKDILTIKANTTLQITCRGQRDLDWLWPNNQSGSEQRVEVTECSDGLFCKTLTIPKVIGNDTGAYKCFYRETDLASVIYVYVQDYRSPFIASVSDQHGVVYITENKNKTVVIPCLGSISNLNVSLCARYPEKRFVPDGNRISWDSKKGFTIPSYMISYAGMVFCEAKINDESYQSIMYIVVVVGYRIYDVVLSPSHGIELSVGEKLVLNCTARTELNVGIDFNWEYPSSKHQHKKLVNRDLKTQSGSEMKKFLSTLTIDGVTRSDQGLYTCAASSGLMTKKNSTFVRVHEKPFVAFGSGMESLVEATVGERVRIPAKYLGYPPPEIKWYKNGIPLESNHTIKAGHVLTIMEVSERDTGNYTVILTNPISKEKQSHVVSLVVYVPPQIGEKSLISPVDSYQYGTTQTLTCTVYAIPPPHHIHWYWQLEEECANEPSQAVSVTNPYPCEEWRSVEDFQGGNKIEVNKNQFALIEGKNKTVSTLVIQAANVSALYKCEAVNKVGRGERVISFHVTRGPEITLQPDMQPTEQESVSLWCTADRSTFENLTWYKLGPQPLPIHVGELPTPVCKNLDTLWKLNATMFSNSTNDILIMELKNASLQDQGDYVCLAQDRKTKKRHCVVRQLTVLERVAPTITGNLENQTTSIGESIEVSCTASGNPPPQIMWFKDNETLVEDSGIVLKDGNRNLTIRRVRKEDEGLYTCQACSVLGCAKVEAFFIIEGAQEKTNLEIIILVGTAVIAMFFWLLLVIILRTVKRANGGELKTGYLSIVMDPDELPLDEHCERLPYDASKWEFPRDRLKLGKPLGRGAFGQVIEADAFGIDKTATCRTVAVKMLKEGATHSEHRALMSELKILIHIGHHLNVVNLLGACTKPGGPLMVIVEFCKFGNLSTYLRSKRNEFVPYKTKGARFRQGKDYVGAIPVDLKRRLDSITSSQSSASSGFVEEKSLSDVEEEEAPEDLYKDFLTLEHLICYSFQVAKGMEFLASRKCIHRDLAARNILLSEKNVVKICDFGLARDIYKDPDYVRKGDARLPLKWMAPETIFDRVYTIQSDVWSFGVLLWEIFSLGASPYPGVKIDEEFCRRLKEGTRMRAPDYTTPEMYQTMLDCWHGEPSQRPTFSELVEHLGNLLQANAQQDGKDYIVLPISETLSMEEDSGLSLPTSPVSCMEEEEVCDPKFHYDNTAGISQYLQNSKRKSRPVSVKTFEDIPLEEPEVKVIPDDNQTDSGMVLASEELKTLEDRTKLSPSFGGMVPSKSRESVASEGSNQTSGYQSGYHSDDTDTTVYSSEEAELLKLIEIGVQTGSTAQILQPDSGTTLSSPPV
Chain of FGFR-2 (P21802 22-821, species assumed): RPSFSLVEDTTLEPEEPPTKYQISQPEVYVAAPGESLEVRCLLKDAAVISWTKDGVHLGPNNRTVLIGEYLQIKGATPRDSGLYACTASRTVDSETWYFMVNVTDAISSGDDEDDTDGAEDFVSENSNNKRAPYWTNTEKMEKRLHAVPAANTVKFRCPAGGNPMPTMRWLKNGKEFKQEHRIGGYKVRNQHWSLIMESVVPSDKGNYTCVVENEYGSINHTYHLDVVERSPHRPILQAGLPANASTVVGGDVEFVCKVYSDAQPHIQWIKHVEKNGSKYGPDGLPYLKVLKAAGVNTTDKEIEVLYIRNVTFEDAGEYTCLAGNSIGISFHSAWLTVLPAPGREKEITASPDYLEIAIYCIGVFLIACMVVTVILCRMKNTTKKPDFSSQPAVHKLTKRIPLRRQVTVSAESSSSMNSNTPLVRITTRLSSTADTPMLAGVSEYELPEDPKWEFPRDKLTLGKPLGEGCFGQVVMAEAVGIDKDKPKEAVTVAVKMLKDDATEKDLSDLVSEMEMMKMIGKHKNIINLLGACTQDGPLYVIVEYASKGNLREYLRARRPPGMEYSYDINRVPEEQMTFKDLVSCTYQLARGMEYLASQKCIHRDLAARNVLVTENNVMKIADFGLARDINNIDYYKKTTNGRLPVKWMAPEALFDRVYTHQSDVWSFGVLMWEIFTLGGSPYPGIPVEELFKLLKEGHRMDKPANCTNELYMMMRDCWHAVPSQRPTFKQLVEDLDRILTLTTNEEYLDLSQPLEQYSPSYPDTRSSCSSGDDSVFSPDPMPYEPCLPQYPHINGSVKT
Chain of Src (P12931 whole entry, species assumed): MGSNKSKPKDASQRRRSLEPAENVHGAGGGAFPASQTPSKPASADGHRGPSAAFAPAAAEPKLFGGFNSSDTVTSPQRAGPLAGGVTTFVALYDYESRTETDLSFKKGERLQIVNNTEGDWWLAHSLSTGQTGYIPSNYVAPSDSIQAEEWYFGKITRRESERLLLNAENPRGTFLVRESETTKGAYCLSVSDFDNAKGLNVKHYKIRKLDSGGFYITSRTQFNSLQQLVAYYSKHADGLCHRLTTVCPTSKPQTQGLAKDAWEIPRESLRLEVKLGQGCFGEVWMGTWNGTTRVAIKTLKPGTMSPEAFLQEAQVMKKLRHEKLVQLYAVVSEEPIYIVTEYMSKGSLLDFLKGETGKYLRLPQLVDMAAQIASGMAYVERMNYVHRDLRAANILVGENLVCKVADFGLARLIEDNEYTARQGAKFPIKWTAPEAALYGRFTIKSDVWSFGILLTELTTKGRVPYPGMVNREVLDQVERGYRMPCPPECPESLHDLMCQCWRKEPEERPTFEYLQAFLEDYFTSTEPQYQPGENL
Chain of wild type FLT3 receptor in HL60 (P36888 27-993): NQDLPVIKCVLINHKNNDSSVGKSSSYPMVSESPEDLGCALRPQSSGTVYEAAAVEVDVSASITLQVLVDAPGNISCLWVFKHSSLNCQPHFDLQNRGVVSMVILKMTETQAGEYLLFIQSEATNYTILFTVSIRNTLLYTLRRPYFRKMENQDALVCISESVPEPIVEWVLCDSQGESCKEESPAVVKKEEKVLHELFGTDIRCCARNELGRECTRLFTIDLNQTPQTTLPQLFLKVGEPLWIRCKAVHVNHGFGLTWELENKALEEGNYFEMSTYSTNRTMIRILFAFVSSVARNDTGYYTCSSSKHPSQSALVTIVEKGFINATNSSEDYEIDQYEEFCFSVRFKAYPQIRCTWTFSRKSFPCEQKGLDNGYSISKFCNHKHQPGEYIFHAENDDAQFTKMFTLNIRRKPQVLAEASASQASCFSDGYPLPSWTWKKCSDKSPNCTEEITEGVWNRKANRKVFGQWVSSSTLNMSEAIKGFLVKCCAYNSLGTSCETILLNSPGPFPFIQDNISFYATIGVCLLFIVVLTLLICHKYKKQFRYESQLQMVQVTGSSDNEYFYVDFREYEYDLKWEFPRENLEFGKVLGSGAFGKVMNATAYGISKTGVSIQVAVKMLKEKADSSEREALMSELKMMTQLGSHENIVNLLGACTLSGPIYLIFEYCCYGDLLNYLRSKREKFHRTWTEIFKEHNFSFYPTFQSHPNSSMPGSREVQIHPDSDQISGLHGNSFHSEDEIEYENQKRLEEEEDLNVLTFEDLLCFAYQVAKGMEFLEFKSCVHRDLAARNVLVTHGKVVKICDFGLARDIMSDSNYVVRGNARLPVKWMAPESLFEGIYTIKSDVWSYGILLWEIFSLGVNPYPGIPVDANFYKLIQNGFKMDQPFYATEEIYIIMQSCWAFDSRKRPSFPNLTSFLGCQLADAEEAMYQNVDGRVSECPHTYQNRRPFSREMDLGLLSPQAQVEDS
Chain of TIE-2 (Q02763 23-1124, species assumed): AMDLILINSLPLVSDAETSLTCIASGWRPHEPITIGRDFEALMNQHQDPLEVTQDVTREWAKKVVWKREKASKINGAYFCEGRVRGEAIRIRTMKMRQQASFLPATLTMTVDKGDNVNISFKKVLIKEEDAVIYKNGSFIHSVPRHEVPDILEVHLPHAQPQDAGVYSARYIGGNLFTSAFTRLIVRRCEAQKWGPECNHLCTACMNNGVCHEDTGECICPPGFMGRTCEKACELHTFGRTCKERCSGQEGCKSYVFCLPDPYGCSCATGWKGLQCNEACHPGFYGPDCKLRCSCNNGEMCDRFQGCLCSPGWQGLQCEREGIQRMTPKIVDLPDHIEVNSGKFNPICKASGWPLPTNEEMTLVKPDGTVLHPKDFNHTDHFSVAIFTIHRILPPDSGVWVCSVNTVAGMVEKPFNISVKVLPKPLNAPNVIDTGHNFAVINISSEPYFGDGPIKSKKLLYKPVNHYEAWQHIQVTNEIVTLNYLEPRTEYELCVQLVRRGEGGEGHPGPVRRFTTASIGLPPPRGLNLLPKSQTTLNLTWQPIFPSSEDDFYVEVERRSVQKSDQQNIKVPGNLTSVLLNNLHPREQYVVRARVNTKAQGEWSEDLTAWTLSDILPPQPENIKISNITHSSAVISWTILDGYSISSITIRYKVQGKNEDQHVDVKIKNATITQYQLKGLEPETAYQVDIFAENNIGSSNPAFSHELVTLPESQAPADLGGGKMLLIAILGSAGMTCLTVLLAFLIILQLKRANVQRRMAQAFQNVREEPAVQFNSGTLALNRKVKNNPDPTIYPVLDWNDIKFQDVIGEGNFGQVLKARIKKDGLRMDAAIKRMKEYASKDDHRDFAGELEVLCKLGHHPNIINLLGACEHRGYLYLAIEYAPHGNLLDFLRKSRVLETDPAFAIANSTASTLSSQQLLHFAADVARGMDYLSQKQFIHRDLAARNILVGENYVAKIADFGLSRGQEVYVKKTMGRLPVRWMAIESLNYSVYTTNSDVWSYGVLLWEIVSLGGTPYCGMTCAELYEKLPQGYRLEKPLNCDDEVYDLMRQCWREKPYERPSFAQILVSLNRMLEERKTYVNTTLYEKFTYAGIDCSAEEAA

IC50 (VEGFR-2): 273 nM
IC50 (FGFR-2): > 5070 nM
IC50 (TIE-2): > 5070 nM
IC50 (Src): 4980 nM
IC50 (EGFR): > 10000 nM
IC50 (erbB2): > 10000 nM
Kd [8]: 12000 nM
Kd [9]: 760 nM
Kd (ABL1-nonphosphorylated): 600 nM
Kd (ABL1-phosphorylated): 88 nM
SMILES: CC1(COc2ccc3c(c2)ncn3-c2ccc3cccc(N4CCC(N)CC4)c3n2)COC1 [Crenolanib Besylate]
inhibition of other known RTKs or serine/threonine kinases [1]: does not inhibit
Percent Apoptosis ([2]; compound concentration 20 nM): 32.79%
Percent Apoptosis ([2]; compound concentration 50 nM): 44.99%
Percent Apoptosis ([2]; compound concentration 100 nM): 51.17%
cytotoxic response of Molm 14 cells compared to sorafenib ([2]; concentrations 20 nM to 100 nM): significantly higher as compared to sorafenib
cytotoxicity [3]: Cytotoxicity was observed in a dose dependent fashion
MV-411-luciferase bone marrow infiltration compared to vehicle [4]: siginificantly suppressed
IC50 (Ba/F3 D835Y): 6.38 nM
IC50 (Ba/F3 D835N): 3.93 nM
cytotoxic response compared with sorafenib [5]: greater cytotoxic response
IC50 (Ba/F3 D835Y/ITD): 20.4 nM
cytotoxic effect [6]: induced a cytotoxic effect
cytarabine accumulation (FLT3-ITD MV411 cells): does not decrease cytarabine accumulation
anti-leukemic effect of combination with cytarabine (MV-411 FLT3 ITD cells): Synergistic in vitro anti-leukemic effects
phosphorylation inhibition of wild type FLT3 receptor [7]: increased phosphorylation inhibition in a dose dependent fashion

SMILES: CNC(=O)c1cc(Oc2ccc(NC(=O)Nc3ccc(Cl)c(C(F)(F)F)c3)cc2)ccn1 [Sorafenib, reference compound]
Percent Apoptosis ([2]; compound concentration 20 nM): 13.07%
Percent Apoptosis ([2]; compound concentration 50 nM): 30.21%
Percent Apoptosis ([2]; compound concentration 100 nM): 44.09%
cytotoxic effect [6]: ineffective
